Tests used:
Calcitonin receptor = target: T1, Calcitonin receptor (Homo sapiens, UniProt P30988); assay type: cell membranes, Membrane; details: t47d; further: in other assays of this panel Not Active means under 50% inhibition at 10 µM
T1 sequence (P30988 whole entry): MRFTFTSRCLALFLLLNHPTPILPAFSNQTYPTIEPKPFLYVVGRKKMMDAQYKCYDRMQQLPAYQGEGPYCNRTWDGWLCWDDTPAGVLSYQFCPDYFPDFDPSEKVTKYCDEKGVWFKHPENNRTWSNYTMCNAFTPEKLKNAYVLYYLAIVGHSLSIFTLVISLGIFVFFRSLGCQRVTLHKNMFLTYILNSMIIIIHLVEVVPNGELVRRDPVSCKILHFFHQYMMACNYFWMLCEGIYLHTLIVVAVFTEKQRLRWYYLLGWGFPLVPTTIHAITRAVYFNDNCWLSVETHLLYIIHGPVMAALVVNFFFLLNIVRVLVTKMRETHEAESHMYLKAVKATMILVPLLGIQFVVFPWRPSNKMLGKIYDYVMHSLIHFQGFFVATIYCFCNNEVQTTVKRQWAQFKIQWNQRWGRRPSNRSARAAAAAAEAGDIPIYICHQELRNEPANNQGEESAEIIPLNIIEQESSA

Substance-K receptor = target: T2, Substance-K receptor (Homo sapiens, UniProt P21452); assay type: cell membranes, CHO, Membrane; further: in other assays of this panel Not Active means under 50% inhibition at 10 µM
T2 sequence (P21452 whole entry): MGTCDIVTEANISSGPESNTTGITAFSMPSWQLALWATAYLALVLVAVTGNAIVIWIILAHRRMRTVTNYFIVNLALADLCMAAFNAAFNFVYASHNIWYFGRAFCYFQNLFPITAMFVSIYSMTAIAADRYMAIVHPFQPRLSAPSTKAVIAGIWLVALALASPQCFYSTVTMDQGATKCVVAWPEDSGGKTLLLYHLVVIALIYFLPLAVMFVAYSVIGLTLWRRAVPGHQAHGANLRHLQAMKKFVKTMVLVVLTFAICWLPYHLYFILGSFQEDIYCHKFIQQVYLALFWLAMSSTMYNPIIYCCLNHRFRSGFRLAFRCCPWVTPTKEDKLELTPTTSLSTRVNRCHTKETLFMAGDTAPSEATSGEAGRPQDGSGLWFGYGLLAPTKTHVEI

Vasopressin V1a receptor = Vasopressin V1a receptor (Homo sapiens, UniProt P37288); assay type: cell membranes, Membrane; details: hek293; further: in other assays of this panel Not Active means under 50% inhibition at 10 µM
Sequence of Vasopressin V1a receptor (P37288 whole entry): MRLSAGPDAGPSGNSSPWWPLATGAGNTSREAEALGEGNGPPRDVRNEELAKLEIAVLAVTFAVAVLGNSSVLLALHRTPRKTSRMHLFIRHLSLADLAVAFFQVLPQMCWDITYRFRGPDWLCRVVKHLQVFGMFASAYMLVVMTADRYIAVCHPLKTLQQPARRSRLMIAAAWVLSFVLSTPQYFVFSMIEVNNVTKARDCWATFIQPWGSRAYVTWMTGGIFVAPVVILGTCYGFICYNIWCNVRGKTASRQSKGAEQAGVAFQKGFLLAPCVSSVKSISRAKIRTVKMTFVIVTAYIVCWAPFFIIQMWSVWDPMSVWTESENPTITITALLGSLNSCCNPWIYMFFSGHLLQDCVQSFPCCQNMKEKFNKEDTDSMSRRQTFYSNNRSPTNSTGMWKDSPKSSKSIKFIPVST

[1] = DRUGMATRIX: Calcium Channel Type L, Phenylalkylamine radioligand binding (ligand: [3H] (-)-Desmethoxyverapamil (D-888)); assay type: cell membranes, Rattus norvegicus, Wistar, Brain, Membrane; details: Not Active = under 50% inhibition at 10 µM
Endothelin-1 receptor = target: T3, Endothelin-1 receptor (Homo sapiens, UniProt P25101); assay type: cell membranes, Membrane; details: cho-k1; further: in other assays of this panel Not Active means under 50% inhibition at 10 µM
T3 sequence (P25101 whole entry): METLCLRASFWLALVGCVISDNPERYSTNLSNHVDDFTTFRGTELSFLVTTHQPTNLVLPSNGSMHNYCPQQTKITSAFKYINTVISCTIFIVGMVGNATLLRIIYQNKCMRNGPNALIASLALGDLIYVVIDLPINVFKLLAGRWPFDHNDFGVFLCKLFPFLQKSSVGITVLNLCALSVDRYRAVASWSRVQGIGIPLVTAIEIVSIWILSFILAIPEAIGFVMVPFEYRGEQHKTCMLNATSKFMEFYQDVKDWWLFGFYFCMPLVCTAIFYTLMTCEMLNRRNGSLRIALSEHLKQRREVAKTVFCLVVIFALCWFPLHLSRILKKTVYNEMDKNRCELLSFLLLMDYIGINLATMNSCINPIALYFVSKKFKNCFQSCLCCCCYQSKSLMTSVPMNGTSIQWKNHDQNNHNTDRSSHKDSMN

[2] = target: T4, Amine oxidase [flavin-containing] A (Homo sapiens, UniProt P21397); assay: DRUGMATRIX: Monoamine Oxidase MAO-A enzyme inhibition (substrate: Kynuramine); parameters: species or system BTI-TN-5B1-4; details: bti-tn-5b1-4; Not Active = under 50% inhibition at 10 µM
T4 sequence (P21397 whole entry): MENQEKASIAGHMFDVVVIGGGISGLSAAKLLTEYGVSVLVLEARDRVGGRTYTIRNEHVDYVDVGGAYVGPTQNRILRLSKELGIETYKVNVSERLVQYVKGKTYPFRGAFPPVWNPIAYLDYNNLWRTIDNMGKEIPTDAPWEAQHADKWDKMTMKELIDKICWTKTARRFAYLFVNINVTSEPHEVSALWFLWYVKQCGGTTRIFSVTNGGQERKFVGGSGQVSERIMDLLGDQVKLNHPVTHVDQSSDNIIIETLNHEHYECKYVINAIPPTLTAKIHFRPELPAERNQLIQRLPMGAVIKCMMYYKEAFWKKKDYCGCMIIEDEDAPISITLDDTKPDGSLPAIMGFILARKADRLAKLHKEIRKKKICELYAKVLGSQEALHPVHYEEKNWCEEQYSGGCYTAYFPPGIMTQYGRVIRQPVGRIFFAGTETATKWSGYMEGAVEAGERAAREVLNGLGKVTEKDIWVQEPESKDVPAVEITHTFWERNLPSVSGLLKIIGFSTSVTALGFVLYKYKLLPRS

Interstitial collagenase = target: T5, Interstitial collagenase (Homo sapiens, UniProt P03956); assay: biochemical; assay type: tissue-based, Rheumatoid synovial fibroblasts
T5 sequence (P03956 whole entry): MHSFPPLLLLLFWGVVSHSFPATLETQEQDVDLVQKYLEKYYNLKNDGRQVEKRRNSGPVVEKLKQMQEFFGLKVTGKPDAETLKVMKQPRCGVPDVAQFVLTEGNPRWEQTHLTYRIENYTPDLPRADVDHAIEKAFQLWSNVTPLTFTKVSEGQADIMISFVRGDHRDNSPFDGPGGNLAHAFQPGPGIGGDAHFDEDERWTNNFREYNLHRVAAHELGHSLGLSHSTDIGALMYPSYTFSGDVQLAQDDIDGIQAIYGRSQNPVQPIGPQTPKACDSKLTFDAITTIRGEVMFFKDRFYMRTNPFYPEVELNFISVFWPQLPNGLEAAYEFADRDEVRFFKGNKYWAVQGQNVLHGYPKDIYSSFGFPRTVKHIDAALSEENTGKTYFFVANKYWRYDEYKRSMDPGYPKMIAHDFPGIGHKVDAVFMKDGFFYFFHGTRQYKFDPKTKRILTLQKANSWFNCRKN

SMILES | IC50 (Calcitonin receptor) | IC50 (Substance-K receptor; cho) | IC50 (Vasopressin V1a receptor) | IC50 [1] | Ki [1] | IC50 (Endothelin-1 receptor) | IC50 [2] | IC50 (Interstitial collagenase) | IC50 (Substance-K receptor; read-out: IC50) | Ki (Substance-K receptor; read-out: Ki) | IC50 ([1]; read-out: IC50) | Ki ([1]; read-out: Ki)
C[N+]1(C)[C@@H]2C[C@@H](OC(=O)[C@H](CO)c3ccccc3)C[C@H]1[C@@H]1O[C@@H]12.[Br-] [METHSCOPOLAMINE BROMIDE] | Not Active | Not Active | Not Active | Not Active | Not Active | Not Active | Not Active | Not Active | – | – | – | –
CCN(CC)CCNC(=O)c1cc(Cl)c(N)cc1OC [METOCLOPRAMIDE] | Not Active | Not Active | Not Active | Not Active | Not Active | Not Active | Not Active | Not Active | – | – | – | –
O=C(OC[C@H]1O[C@@H](OC(=O)c2cc(O)c(O)c(OC(=O)c3cc(O)c(O)c(O)c3)c2)[C@H](OC(=O)c2cc(O)c(O)c(OC(=O)c3cc(O)c(O)c(O)c3)c2)[C@@H](OC(=O)c2cc(O)c(O)c(OC(=O)c3cc(O)c(O)c(O)c3)c2)[C@@H]1OC(=O)c1cc(O)c(O)c(OC(=O)c2cc(O)c(O)c(O)c2)c1)c1cc(O)c(O)c(OC(=O)c2cc(O)c(O)c(O)c2)c1 [TANNIC ACID] | Not Active | Not Active | Not Active | Not Active | Not Active | Not Active | Not Active | Not Active | – | – | – | –
CN1C(=O)OC(C)(C)C1=O [TRIMETHADIONE] | Not Active | Not Active | Not Active | Not Active | Not Active | Not Active | Not Active | Not Active | – | – | – | –
Cc1cn([C@H]2C=C[C@@H](CO)O2)c(=O)[nH]c1=O [STAVUDINE] | Not Active | Not Active | Not Active | Not Active | Not Active | Not Active | Not Active | Not Active | – | – | – | –
CN1C[C@H](CNC(=O)OCc2ccccc2)C[C@@H]2c3cccc4c3c(cn4C)C[C@H]21 [METERGOLINE] | Not Active | – | Not Active | – | – | Not Active | Not Active | Not Active | 4070 nM | 1360 nM | 278 nM | 270 nM
CC(C)(C)NC[C@H](O)COc1cccc2c1CCCC2=O [LEVOBUNOLOL] | Not Active | Not Active | Not Active | Not Active | Not Active | Not Active | Not Active | Not Active | – | – | – | –
Nc1nc(N)c2nc(-c3ccccc3)c(N)nc2n1 | Not Active | Not Active | Not Active | Not Active | Not Active | Not Active | Not Active | Not Active | – | – | – | –
Cc1ccc(S(=O)(=O)NC(=O)NN2CCCCCC2)cc1 [TOLAZAMIDE] | Not Active | Not Active | Not Active | Not Active | Not Active | Not Active | Not Active | Not Active | – | – | – | –
Cc1ccc(Cl)c(Nc2ccccc2C(=O)O)c1Cl [MECLOFENAMIC ACID] | Not Active | Not Active | Not Active | Not Active | Not Active | Not Active | Not Active | Not Active | – | – | – | –
CO[C@@H]1[C@@H](OC)[C@H](C)[C@@](O)(CC(=O)O)O[C@H]1[C@H](C)[C@H]1O[C@@]2(CC[C@@](C)([C@H]3CC[C@@](C)([C@@H]4O[C@@H]([C@H]5O[C@](C)(O)[C@H](C)C[C@@H]5C)C[C@@H]4O[C@@H]4C[C@H](OC)[C@@H](OC)[C@H](C)O4)O3)O2)C[C@H](O)[C@H]1C.N [MADURAMICIN] | Not Active | Not Active | Not Active | Not Active | Not Active | Not Active | Not Active | Not Active | – | – | – | –
CCC(C)(C)C(=O)O[C@H]1C[C@@H](C)C=C2C=C[C@H](C)[C@H](CC[C@@H]3C[C@@H](O)CC(=O)O3)[C@H]21 [SIMVASTATIN] | Not Active | Not Active | Not Active | Not Active | Not Active | Not Active | Not Active | Not Active | – | – | – | –

Source: ChEMBL document CHEMBL1909046, “DrugMatrix in vitro pharmacology data”
